Measurements published in article PMC11111895, “Identification of a dCache-type chemoreceptor in Campylobacter jejuni that specifically mediates chemotaxis towards methyl pyruvate” (Frontiers in Microbiology, 2024).

How the values were obtained:
[1] = tested on: Tlp11-LBD (residues 32–332 of Tlp11); assay: Thermal shift assay (TSA) of Tlp11-LBD; assay type: binding, C. jejuni ATCC 33560
Experimental: TSA measurements were performed using a quantitative Real-Time PCR System (LightCycler® 480; Roche, United States), to monitor the Tm of the LBD proteins. The compounds listed in Supplementary Table S2 were used as ligand candidates for the high-throughput screening. Each 25 μL mixture for the standard assay contained 20 μM protein, 1–2 mM compound in Buffer C, and SYPRO™ Orange dye (Life Technologies, United States), at 5× concentration. Samples were heated from 26°C to 85°C, with a ramp rate of 1.2°C min^−1, to denature the protein. Protein unfolding curves were recorded by detecting the changes in fluorescence. The Tm values were calculated using first-derivative values (dF/dT) from the raw data.
Fluorescence-based TSA, which has been widely used to discover direct-binding molecules of proteins with high efficiency ([Fernández et al., 2018]), was used to identify the ligand specificity of the C. jejuni chemoreceptor Tlp11. The Tlp11-LBD protein (residues 32–332 of Tlp11) from the strain C. jejuni ATCC 33560 was expressed and purified from E. coli. Hydrophobic reactive dyes were added to the purified protein sample, and the protein was heated to record the change in fluorescence intensity as the temperature increased during the denaturation process of the protein (see Materials and Methods). The melting temperature (Tm) of the target protein was obtained and represented as the midpoint of the protein unfolding transition. Most ligands stabilize the protein during binding, leading to an increase in Tm. Using TSA, we screened a compound library composed of 131 molecules (Supplementary Table S2) that commonly act as microbial carbon and nitrogen sources or metabolites in the human GI tract. Among the compounds in the library, methyl pyruvate elicited the most significant increase in Tm. In the absence of the ligand, the Tm of Tlp11-LBD was 38.3°C, while in the presence of 1 mM methyl pyruvate, the Tm increased by 1.1°C compared to buffer (Figure 1A).

[2] = target: Tlp11-LBD V318A; assay: MST of Tlp11-LBD mutant V318A; assay type: binding, C. jejuni ATCC 33560; details: max ligand 2.5 mM
Experimental: (§1) The His-tag dye (MO-L018 RED-tris-NTA, NanoTemper, Germany) was adjusted to a final concentration of 25 nM and used to label the purified protein with a His-tag. The compound was diluted to a series of concentrations in phosphate-buffered saline ([Duan et al., 2023]) with 0.05% Tween 20 (PBS-T) buffer and mixed in a ratio of 1:1 with protein. The mixtures were loaded into capillaries (Monolith™ Series capillaries, NanoTemper) by means of capillary action. Thermophoresis was measured using a Monolith™ NT.115 (NanoTemper) instrument, with 40% excitation and 40% MST power configuration. The time-traces of changes in fluorescence, which reflected the thermophoretic movement of labeled protein affected by different concentrations of compound were recorded, and the dose–response curves were fitted with the ‘temperature jump and thermophoresis’ mode. Data analysis was performed using MO. Affinity Analysis version 2.3 (NanoTemper) and Prism version 8.0.2 (GraphPad Software, United States).
In order to confirm the contribution of L264, N268, I276, Y291, V318, and T320 to the binding to methyl pyruvate, we generated Tlp11-LBD proteins with an alanine point mutation at individual residues, to obtain the mutant proteins L264A, N268A, I276A, Y291A, V318A, and T320A, and then analyzed the binding affinities of methyl pyruvate to these mutants using MST. […]

[3] = target: Tlp11-LBD homologue (WP_115552006.1, residues 31-329) (Helicobacter ganmani, UniProt A0A3D8IAJ9); assay: MST of Tlp11-LBD homologue; assay type: binding; details: H. ganmani LBD
Experimental: as §1
(§2) To evaluate whether these potential Tlp11-LBD homologues could bind to methyl pyruvate, we conducted a structural analysis of the LBDs of six chemoreceptors from C. coli, H. equorum, H. himalayensis, H. mesocricetorum, H. ganmani, and C. upsaliensis using Alphafold 2. […]

[4] = target: Tlp11-LBD homologue (WP_115570384.1, residues 34-332) (Helicobacter equorum, UniProt A0A3D8ITS8); assay: MST of Tlp11-LBD homologue; assay type: binding
Experimental: as §1, §2

[5] = tested on: Tlp11[1-343]-PhoQ[202-486] (Tlp343PhoQ202); assay: Hybrid kinase Tlp11-PhoQ GFP reporter assay; assay type: cell-based, E. coli MG1655/ΔPhoQ; details: stimulation for 40 min
Experimental: The reporter plasmid pUA66-PmgtLA-GFP and the plasmid encoding the hybrid kinase were together transformed into E. coli MG1655/ΔPhoQ strain. E. coli cells containing the reporter and Tlp11-PhoQ chimera were incubated in Medium A, at 37°C, with shaking (200 rpm), until an OD600 of 0.4 was attained, following which different concentrations of methyl pyruvate were added to the medium and the cells were incubated for 40 min. The fluorescence intensity of the cells was monitored using a plate reader (Varioskan™ LUX, Life Technologies) equipped with a 488 nm laser and a 528/12 bandpass filter. The acquired data were analyzed using Prism 8.0.2.
To construct the signal input module, we fused the Tlp11-LBD with the PhoQ cytoplasmic region, to design the Tlp11-PhoQ hybrid kinases (Supplementary Figure S6), Tlp11[1-337]-PhoQ[200-486] (Tlp337PhoQ200), Tlp11[1-339]-PhoQ[200-486] (Tlp339PhoQ200), Tlp11[1-339]-PhoQ[201-486] (Tlp339PhoQ201), Tlp11[1-340]-PhoQ[202-486] (Tlp340PhoQ202), Tlp11[1-340]-PhoQ[200-486] (Tlp340PhoQ200), Tlp11[1-341]-PhoQ[202-486] (Tlp341PhoQ202), Tlp11[1-342]-PhoQ[[…]] (Tlp342PhoQ202), Tlp11[1-343]-PhoQ[202-486] (Tlp343PhoQ202), which connected Tlp11 and PhoQ in TM2 (Supplementary Figure S7C). The activity of each chimera in sensing methyl pyruvate was determined by measuring the fluorescence intensity of GFP in the E. coli MG1655/ΔPhoQ strain.

Tlp11-LBD homologue (WP_115570384.1, residues 34-332), sequence (A0A3D8ITS8 entry or part of it): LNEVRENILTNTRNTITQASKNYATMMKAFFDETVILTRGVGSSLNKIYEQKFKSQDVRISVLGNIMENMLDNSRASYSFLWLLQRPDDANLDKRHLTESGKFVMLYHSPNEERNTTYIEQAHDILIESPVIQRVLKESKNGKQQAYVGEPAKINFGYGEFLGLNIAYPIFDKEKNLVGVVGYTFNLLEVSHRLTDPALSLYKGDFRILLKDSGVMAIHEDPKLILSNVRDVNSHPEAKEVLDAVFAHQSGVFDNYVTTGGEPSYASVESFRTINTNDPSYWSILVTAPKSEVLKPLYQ
Tlp11-LBD homologue (WP_115552006.1, residues 31-329), sequence (A0A3D8IAJ9 entry or part of it): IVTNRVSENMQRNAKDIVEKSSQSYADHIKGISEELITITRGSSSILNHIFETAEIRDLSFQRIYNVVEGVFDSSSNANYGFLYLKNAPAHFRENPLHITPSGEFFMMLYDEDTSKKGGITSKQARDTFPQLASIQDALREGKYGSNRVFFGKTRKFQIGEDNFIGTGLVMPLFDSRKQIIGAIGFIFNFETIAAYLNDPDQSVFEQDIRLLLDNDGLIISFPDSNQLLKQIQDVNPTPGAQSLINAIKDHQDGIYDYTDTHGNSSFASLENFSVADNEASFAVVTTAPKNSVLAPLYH

In the case of `COC(=O)C(C)=O` [methyl pyruvate, Methyl pyruvate], the “Tm increase of Tlp11-LBD compared to buffer (ΔTm)” value ([1]; 1 mM compound, 20 μM protein) is reported as 1.1 °C, the “ΔTm of Tlp11-LBD” value ([1]; 3 mM compound) is reported as 1.3 °C and the “ΔTm of Tlp11-LBD” value ([1]; 10 mM compound) is reported as 2.8 °C. The “Kd (binding curve fit)” value [2] was “unable to obtain fitted Kd values”, the Kd [3] was 1600 ± 200 µM and the Kd [4] was 340 ± 43 µM. For the same compound, the “response (GFP fluorescence intensity) of Tlp343PhoQ202” value [5] was “significant concentration-dependence”.
